Laboratory results published in US20060004088A1, “Furan derivatives for preventing and curing osteoporosis and pharmaceutical compositions containing the same” (OCT INC., priority 2002, published 2006).
“Also recorded” adds a separate entry of the source.

Experiments:
[1] = tested on: ovariectomized female white mice with onset of osteoporosis; assay: Therapeutic effect on osteoporosis, bone mineral densitometer; type: in vivo
Description: After ovariectomy, female white mice weighing about 250 g were bred for four weeks. After checking the onset of osteoporosis in the mice, each of the mice was orally administered with 220 μl of the Compound 1 dissolved in 30 ml water for four weeks.
BMD measurement was performed before ovariectomy and every week for eight weeks after ovariectomy, using a bone mineral densitometer, XCT 540 Research SA made in Germany.
(§1) After anesthetizing the mice being bred in cages by intraperitoneal injection of a mixture of Ketamine HCl (ketara 10 mg/kg) and 2% xylazine HCl (Roupun 0.15 ml/kg), BMD measurement was made at a voxel size of 0.1×0,1 mm^2 and threshold values of 280 mg/cm^2 for cancellous bone and 500 mg/cm^2 for compact bone. The analysis sites at the proximal tibias were determined by Scout scans (10 mm/sec), and BMD was measured at three slices at the determined sites by CT scans (7 mm/sec). BMD measurement was performed twice or more at the same site every week during eight weeks after ovariectomy.

[2] = tested on: ovariectomized female white mice; assay: Preventive effect on osteoporosis, bone mineral densitometer; type: in vivo; settings: for Change in BMD, %: oral 10 mg per mouse
Description: After ovariectomy, female white mice weighing about 250 g were orally administered with 10 mg of the Compound 1 per mice for four weeks. Bone mineral density (BMD) was measured before the ovariectomy and every week during the administration of the Compound 1, using a bone mineral densitometer, XCT 540 Research SA made in Germany.
as §1, with “0.1×0.1” for “0.1×0,1”, “value” for “values of”, “same” for “same site”, “four weeks.” for “eight weeks after ovariectomy.”

[3] = tested on: osteoclast progenitor cells; assay: Formation of TRAP-positive multinucleated cells from osteoclast progenitors; type: cell-based, mice; settings: for No. of TRAP(+) multinucleated cells: M-CSF + RANKL, untreated control 132.80 ± 10.50; for number of TRAP-positive multinucleated cells in treated cultures: text summary, concentration not stated, control 132
Description: First, bone marrow cells were isolated, as follow. After sacrificing 7-9 week female mice by cervical dislocation, femur and tibia were excised aseptically while removing attached soft tissues. After cutting both ends of long bones, 1 ml of an enzyme solution, containing 0.1% collagenase (Gibco), 0.05% trypsin and 0.5 mM EDTA (Gibco), was injected to the bone marrow cavity at one end using a syringe with a 26-guage needle, and bone marrow was then collected. After shaking the recovered bone marrow for 30 min, bone marrow cells were collected, and cultured in α-minimum essential medium (α-MEM) supplemented with 10% FBS for 24 hrs. Then, non-adherent cells were collected, which are osteoclast pregenitors, aliquotted onto culture plates at a density of 2×10^5 cells per well, and cultured for 8 days in α-MEM supplemented with 20 ng/ml of macrophage-colony stimulating factor (M-CSF, Peprotech, USA) and 30 ng/ml RANKL (Peprotech, USA). During the 8 days of culturing, the cells were treated with the Compound 1. Thereafter, osteoclast formation was investigated by fixing the cultured cells and then carrying out TRAP staining, as described in the following Experimental Example 2.2. In addition, resorption activity of osteoclasts was investigated by measuring the absorption area after removing osteoclasts in cultures in calcium phosphate-coated plates, as described in Experimental Example 2.3, below.
After cell culture, the adherent cells were washed with PBS, and TRAP staining was performed, as follows. After being fixed with citrate-acetate-formaldehyde for 5 min, the cells were incubated for 1 hr in acetate buffer (prewarmed at 37° C., pH 5.0) containing naphthol AS-BI phosphate, fast Garnet GBC and 7 mM tartrate buffer (pH 5.0). TRAP-positive multinucleated cells having 3 or more nuclei were considered as osteoclasts.

SMILES: O=Cc1ccc(CO)o1 [Compound 1, 5-hydroxymethylfuran-2-carboxyaldehyde]
- decrease of BMD compared to that before the ovariectomy ([1]; control about 22%): about 15%
- reduction of BMD compared to a control (in words) ([1]; oral 220 μl/day for four weeks after four weeks of osteoporosis development): very slight reduction of BMD
- Change in BMD, % ([1]; week 1 after ovariectomy (administration begins after week 4), control −3): −2.9%
- Change in BMD, % ([1]; week 2 after ovariectomy (administration begins after week 4), control −10): −10.5%
- Change in BMD, % ([1]; week 3 after ovariectomy (administration begins after week 4), control −15): −14%
- Change in BMD, % ([1]; week 4 after ovariectomy (administration begins after week 4), control −19): −17%
- Change in BMD, % ([1]; week 5 after ovariectomy, oral 220 μl in 30 ml water from week 4, control −21.8): −16.5%
- Change in BMD, % ([1]; week 7 after ovariectomy, oral 220 μl in 30 ml water from week 4, control −25.9): −19%
- Change in BMD, % ([1]; week 8 after ovariectomy, oral 220 μl in 30 ml water from week 4, control −32): −21.4%
- BMD after four weeks of administration compared to before ovariectomy (in words) ([2]; oral 10 mg/day for four weeks after ovariectomy): increase in BMD; also recorded: remarkably increased bone mineral density (BMD)
- Change in BMD, % ([2]; week 1 after ovariectomy, control −7.5): −2.5%
- Change in BMD, % ([2]; week 2 after ovariectomy, control −11.6): −3.2%
- Change in BMD, % ([2]; week 3 after ovariectomy, control −14.9): −1.8%
- Change in BMD, % ([2]; week 4 after ovariectomy, control −18.6): 3.7%
- No. of TRAP(+) multinucleated cells ([3]; 10^−4 M Compound 1, 8 days): 77.20 ± 6.73
- No. of TRAP(+) multinucleated cells ([3]; 10^−5 M Compound 1, 8 days): 108.20 ± 4.57
- No. of TRAP(+) multinucleated cells ([3]; 10^−6 M Compound 1, 8 days): 103.60 ± 6.95
- No. of TRAP(+) multinucleated cells ([3]; 10^−7 M Compound 1, 8 days): 120.00 ± 6.42
- No. of TRAP(+) multinucleated cells ([3]; 10^−8 M Compound 1, 8 days): 105.20 ± 8.58
- number of TRAP-positive multinucleated cells in treated cultures [3]: 77
- number of TRAP-positive multinucleated cells in treated cultures ([3]; listed as Example 1): remarkably reduced
